# Data from article PMC8667902 (Journal of Enzyme Inhibition and Medicinal Chemistry, 2021).
# How the values were obtained:
# [1] = test system: PC12 cells; assay: Neuroprotection against H2O2-induced PC12 cell injury, LDH assay; format: cell-based; details: PC12, 100 µM H2O2, compound 100 µM; H2O2 alone 712.7, vehicle 602.3
# [2] = Oxygen Radicals Absorbance Capacity by Fluorescence; details: for ORAC: Trolox as reference
# [3] = target: T1, ratAChE (Rattus norvegicus, UniProt P37136); assay: Ellman's method, AChE from rat cortex homogenate; format: biochemical; details: for SI = Selectivity index = IC50 (BuChE)/IC50 (AChE): ratBuChE over rat AChE
# T1 sequence (P37136 32-614): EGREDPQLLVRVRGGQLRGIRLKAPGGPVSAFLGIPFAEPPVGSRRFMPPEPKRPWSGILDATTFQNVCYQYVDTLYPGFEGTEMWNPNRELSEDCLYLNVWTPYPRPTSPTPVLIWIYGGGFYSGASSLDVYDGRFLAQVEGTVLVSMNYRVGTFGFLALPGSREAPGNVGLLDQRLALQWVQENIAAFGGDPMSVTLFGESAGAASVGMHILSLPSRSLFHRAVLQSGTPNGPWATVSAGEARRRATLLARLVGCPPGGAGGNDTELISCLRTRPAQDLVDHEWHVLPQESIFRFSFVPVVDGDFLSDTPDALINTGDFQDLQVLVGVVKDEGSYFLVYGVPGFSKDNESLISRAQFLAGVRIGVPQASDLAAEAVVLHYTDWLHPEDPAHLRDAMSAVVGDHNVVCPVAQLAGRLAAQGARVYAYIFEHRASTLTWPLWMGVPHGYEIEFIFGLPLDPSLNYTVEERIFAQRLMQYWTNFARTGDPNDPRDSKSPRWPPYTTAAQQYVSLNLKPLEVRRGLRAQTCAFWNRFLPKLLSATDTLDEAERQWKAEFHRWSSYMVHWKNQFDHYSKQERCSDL
# [4] = target: T2, huMAO-B (Homo sapiens, UniProt P27338); assay: biochemical
# T2 sequence (P27338 1-520): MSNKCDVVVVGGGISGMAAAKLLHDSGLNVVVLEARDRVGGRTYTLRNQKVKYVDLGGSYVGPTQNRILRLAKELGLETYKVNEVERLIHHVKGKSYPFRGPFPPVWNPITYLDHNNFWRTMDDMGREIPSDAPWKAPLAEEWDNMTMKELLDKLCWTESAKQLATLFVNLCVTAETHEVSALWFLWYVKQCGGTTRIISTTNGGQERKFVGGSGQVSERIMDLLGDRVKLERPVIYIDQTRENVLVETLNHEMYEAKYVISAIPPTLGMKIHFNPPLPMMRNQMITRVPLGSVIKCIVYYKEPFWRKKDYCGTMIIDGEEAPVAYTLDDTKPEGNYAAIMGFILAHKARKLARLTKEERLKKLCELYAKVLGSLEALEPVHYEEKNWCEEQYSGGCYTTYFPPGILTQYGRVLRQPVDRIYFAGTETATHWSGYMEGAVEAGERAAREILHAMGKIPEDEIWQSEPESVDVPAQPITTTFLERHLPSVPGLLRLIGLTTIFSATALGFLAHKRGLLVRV
# [5] = target: T3, huMAO-A (Homo sapiens, UniProt P21397); assay: huMAO-A inhibition, fluorescence method; format: biochemical; details: for inhibition at 10 µM: read-out: MAO-A percent inhibition rate
# T3 sequence (P21397 1-527): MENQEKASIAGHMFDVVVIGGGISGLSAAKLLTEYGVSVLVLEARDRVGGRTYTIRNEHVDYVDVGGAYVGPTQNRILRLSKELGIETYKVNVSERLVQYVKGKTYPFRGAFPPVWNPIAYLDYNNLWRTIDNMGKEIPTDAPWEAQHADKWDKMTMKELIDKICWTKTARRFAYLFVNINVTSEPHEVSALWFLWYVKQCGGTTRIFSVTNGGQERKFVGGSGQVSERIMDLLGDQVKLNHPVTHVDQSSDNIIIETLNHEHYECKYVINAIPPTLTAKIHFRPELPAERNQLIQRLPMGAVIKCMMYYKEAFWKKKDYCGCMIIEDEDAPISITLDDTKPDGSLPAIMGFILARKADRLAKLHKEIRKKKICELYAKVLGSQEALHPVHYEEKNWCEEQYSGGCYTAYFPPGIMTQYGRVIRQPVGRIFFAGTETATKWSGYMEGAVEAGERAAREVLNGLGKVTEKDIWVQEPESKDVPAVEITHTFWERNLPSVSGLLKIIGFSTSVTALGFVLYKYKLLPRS
# [6] = target: ratBuChE (Rattus norvegicus, UniProt Q9JKC1); assay: Ellman's method, BuChE from rat serum; format: biochemical
# Chain of ratBuChE (Q9JKC1 24-597): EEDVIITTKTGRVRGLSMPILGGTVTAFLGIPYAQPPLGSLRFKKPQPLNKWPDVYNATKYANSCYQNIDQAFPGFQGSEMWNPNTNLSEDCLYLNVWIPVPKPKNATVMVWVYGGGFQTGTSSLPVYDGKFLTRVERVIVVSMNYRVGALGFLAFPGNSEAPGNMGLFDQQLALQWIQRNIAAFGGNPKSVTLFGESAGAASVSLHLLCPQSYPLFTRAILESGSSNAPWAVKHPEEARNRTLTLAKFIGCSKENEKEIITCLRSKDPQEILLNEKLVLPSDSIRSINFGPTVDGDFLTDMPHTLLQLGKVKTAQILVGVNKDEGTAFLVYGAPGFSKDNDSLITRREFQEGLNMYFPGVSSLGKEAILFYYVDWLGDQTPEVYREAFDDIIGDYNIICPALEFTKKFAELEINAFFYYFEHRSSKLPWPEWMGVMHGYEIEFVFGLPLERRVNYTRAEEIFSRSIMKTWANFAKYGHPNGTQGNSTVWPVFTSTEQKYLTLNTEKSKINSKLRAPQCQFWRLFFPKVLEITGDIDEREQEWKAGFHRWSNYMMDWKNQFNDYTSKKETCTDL
# [7] = target: eeAChE (Electrophorus electricus, UniProt O42275); assay: Ellman's method, electric eel AChE; format: biochemical
# Chain of eeAChE (O42275 24-633): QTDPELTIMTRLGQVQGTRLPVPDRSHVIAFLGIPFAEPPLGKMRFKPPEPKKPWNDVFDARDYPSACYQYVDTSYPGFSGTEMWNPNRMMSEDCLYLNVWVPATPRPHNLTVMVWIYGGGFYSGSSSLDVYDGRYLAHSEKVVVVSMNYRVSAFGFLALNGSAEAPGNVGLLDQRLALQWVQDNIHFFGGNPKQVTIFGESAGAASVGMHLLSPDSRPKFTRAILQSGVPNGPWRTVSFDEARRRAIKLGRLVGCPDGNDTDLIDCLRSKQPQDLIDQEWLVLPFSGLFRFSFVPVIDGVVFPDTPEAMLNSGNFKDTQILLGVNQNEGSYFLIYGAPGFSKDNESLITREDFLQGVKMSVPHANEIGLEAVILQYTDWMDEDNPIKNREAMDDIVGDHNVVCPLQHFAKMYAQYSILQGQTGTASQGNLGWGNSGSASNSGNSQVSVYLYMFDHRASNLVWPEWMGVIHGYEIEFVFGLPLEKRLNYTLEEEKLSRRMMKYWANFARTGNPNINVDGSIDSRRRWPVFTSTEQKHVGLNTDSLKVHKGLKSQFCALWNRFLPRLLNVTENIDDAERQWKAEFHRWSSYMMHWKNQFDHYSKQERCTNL
# [8] = target: T4, Aβ1–42 fibrils (Homo sapiens, UniProt P05067); assay: Disaggregation of self-induced Aβ1–42 aggregation; format: biochemical; details: 25 μM; ThT assay
# T4 sequence (P05067 672-713): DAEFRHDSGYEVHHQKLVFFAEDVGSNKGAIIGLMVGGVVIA
# [9] = target: T5, Aβ1–42 (Homo sapiens, UniProt P05067); assay: Inhibition of Cu2+-induced Aβ1–42 aggregation; format: biochemical; details: read-out: Inhibition of Aβ1–42 aggregation (%) Cu^2+-induced
# T5 sequence (P05067 672-713): as above
# [10] = target: T5, Aβ1–42; assay: Inhibition of self-induced Aβ1–42 aggregation; format: biochemical; details: read-out: Inhibition of Aβ1–42 aggregation (%) Self-induced, 25 μM; ThT assay
# [11] = target: T4, Aβ1–42 fibrils; assay: Disaggregation of Cu2+-induced Aβ1–42 aggregation; format: biochemical; details: 25 μM; ThT assay
# [12] = Metal chelation by UV-vis spectrometry and molar ratio method; format: physicochemical; details: 37.5 μM
# [13] = peak of compound alone: 9d 362 nm, 17f 350 nm
SMILES,LDH vitality [1],ORAC [2],IC50 [3] [µM],SI = Selectivity index = IC50 (BuChE)/IC50 (AChE) [3],IC50 [4] [µM],inhibition at 10 µM [5] [%],IC50 [6] [µM],IC50 [7] [µM],Disaggregation of Aβ1–42 aggregation (%) Self-induced [8] [%],inhibition at 25 µM [9] [%],inhibition at 25 µM [10] [%],Disaggregation of Aβ1–42 aggregation (%) Cu^2+-induced [11] [%],SI = selectivity index = IC50 (hMAO-A)/IC50 (hMAO-B) [4],IC50 [5] [µM],inhibition at 10 µM ([4]; read-out: MAO-B percent inhibition rate) [%],shift of characteristic UV peak after adding FeSO4 and ZnCl2 [12],"characteristic UV peak after adding AlCl3 (red shift) [12, 13] [nm]","characteristic UV peak after adding CuCl2 (red shift) [12, 13] [nm]",ORAC-FL value ([2]; Trolox equivalents) [eq]
"Cc1c(C)c2c(c(C)c1O)CC[C@@](C)(CCC[C@H](C)CCC[C@H](C)CCCC(C)C)O2 [Vitamin E, α-tocopherol, reference compound]",654.7,2.6 ± 0.06 μM of Trolox equivalent/μM of compounds,,,,,,,,,,,,,,,,,
"COc1ccccc1CN(C)CCCOc1ccc(/C=C/C(=O)c2c(O)cc(OC)c(OC)c2OC)cc1 [Compound 9a, (E)-1-(6-Hydroxy-2,3,4-trimethoxyphenyl)-3-(4-(3-((2-methoxybenzyl)(methyl)amino)propoxy)phenyl)prop-2-en-1-one]",,1.01 ± 0.01 μM of Trolox equivalent/μM of compounds,3.12 ± 0.02,>160.3,3.8 ± 0.02,13.9,> 500,1.46 ± 0.02,26.8 ± 0.02,66.2 ± 0.02,57.4 ± 0.01,54.2 ± 0.02,,,,,,,
"COc1ccccc1CN(C)CCCCOc1ccc(/C=C/C(=O)c2c(O)cc(OC)c(OC)c2OC)cc1 [Compound 9c, (E)-1-(6-hydroxy-2,3,4-trimethoxyphenyl)-3-(4-(4-((2-methoxybenzyl)(methyl)amino)butoxy)phenyl)prop-2-en-1-one]",,0.97 ± 0.01 μM of Trolox equivalent/μM of compounds,1.77 ± 0.01,>282.5,23.6 ± 0.12,,> 500,1.5 ± 0.02,45.7 ± 0.12,74.1 ± 0.02,65 ± 0.01,66.6 ± 0.36,1.5,35.7 ± 0.36,,,,,
"COc1ccccc1CN(C)CCCCOc1ccc(/C=C/C(=O)c2c(O)cc(OC)c(O)c2OC)cc1 [Compound 17c, (E)-1-(3,6-dihydroxy-2,4-dimethoxyphenyl)-3-(4-(4-((2-methoxybenzyl)(methyl)amino)butoxy)phenyl)prop-2-en-1-one]",,2.8 ± 0.01 μM of Trolox equivalent/μM of compounds,1.63 ± 0.02,>306.7,,,> 500,3.74 ± 0.03,75.9 ± 0.03,92.5 ± 0.03,68.4 ± 0.02,79.1 ± 0.15,,18.3 ± 0.15,11,,,,
"CCN(CCCCOc1ccc(/C=C/C(=O)c2c(O)cc(OC)c(OC)c2OC)cc1)Cc1ccccc1OC [Compound 9d, (E)-3-(4-(4-(ethyl(2-methoxybenzyl)amino)butoxy)phenyl)-1-(6-hydroxy-2,3,4-trimethoxyphenyl)prop-2-en-1-one]",,1.01 ± 0.2 μM of Trolox equivalent/μM of compounds,0.32 ± 0.02,1409.4,12.3 ± 0.08,,451 ± 1.68,1.2 ± 0.01,33.0 ± 0.08,72.4 ± 0.01,72.7 ± 0.02,63.2 ± 0.63,3.1,38.2 ± 0.63,,no obvious shift,376,444,0.96
"CCN(CCCCCCOc1ccc(/C=C/C(=O)c2c(O)cc(OC)c(OC)c2OC)cc1)Cc1ccccc1OC [Compound 9f, (E)-3-(4-(6-(ethyl(2-methoxybenzyl)amino)hexyloxy)phenyl)-1-(6-hydroxy-2,3,4-trimethoxyphenyl)prop-2-en-1-one]",,0.96 ± 0.01 μM of Trolox equivalent/μM of compounds,0.61 ± 0.01,>819.7,7.2 ± 0.03,,> 500,1.78 ± 0.02,62.8 ± 0.03,75 ± 0.02,69 ± 0.01,81.4 ± 0.68,6.1,43.6 ± 0.68,,,,,
"CCN(CCCCOc1ccc(/C=C/C(=O)c2c(O)cc(OC)c(O)c2OC)cc1)Cc1ccccc1OC [Compound 17d, (E)-1-(3,6-dihydroxy-2,4-dimethoxyphenyl)-3-(4-(4-(ethyl(2-methoxybenzyl)amino)butoxy)phenyl)prop-2-en-1-one]",,3.1 ± 0.01 μM of Trolox equivalent/μM of compounds,0.58 ± 0.01,700,15.1 ± 0.16,16.7,406 ± 15.2,3.68 ± 0.02,45.7 ± 0.16,91.7 ± 0.02,73.8 ± 0.01,79.8 ± 0.03,,,,,,,
